From patent US11917959B2, “Multi-ear system to enhance monocot plant yield” (Monsanto Technology LLC, priority 2015, dated 2024)

Test system: diploid maize plants of a common inbred line
Assay: Tiller induction in diploid maize (Example 6)
Type: in vivo
Description: Diploid maize plants of a common inbred line were subjected to a tiller induction treatment comprising drenching the soil surrounding the roots with 100 mL of a 2.5% PBZ solution (v/v; 0.4% of active ingredient) approximately one week after germination and then allowed to grow to sexual maturity in 10-inch pots a greenhouse. A control group of plants were grown under identical circumstances except that they were not subjected to the tiller induction treatment.
Three treatment groups were then formed from the tillers: tillers of the “Co-hab” treatment were allowed to continue growing in the same pot with the mother plant; those of the “-Mother” treatment also remained in the same pot, but the mother plant was removed from the pot; and those of the “Transplanted” treatment group were transplanted from the pot containing the mother plant into separate 10-inch pots, one plant per pot. Any naturally-occurring tillers produced by the control group were allowed to grow in the same pot as the mother plant, similar to the co-hab treatment. All plants were allowed to grow to sexual maturity and self-pollinated when silks and tassels formed. When seed set was complete, the average total number of seeds produced by all plants deriving from the same mother plant seed were counted and plotted in FIG. 3.

Question: What does the source list for `CC(C)(C)[C@@H](O)[C@@H](Cc1ccc(Cl)cc1)n1cncn1` (relative stereo) [PBZ, (±)-(R*, R*)-beta-((4-chlorophenyl)methyl)-alpha-(1,1,-dimethylethyl)-1H-1,2,4,-triazole-1-ethanol]?
Answer: effect on mother plants (100 mL 2.5% PBZ soil drench): shortened internodes, and induced the mother plants to produce tillers; number of seeds vs control group (transplanted treatment group, 100 mL 2.5% PBZ one week after germination): more than twice
